Experimental data taken from patent publication US7312336B2, “Compounds with analgesic effect” (AstraZeneca Canada Inc., priority 1996, dated 2007).
Where a name gives a salt, the structure may show the parent alone.

Key:
[1] = molecular target: δ receptor (Homo sapiens, UniProt P41143); settings: background statement; cited from earlier work
[2] = background statement; cited from earlier work

Chain of δ receptor (P41143 whole entry): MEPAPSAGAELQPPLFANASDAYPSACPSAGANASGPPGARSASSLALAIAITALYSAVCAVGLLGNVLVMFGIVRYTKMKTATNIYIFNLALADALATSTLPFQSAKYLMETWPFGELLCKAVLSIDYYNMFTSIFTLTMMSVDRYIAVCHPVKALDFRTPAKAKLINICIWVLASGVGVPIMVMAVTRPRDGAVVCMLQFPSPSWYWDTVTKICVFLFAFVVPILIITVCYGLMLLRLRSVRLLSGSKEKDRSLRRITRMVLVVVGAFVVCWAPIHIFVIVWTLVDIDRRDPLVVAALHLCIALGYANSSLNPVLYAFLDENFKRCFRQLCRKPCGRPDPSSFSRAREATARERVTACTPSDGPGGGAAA

Work on CCN(CC)C(=O)c1ccc(C(O)(c2cccc3cccnc23)C2CCN(C(=O)OC(C)(C)C)CC2)cc1 (stereo not drawn) yielded a melting point of 100 to 105 °C.
CCN(CC)C(=O)c1ccc(C(O)(c2cccc(OC)c2)C2CCN(C(=O)OC(C)(C)C)CC2)cc1 (stereo not drawn) showed a melting point of 95 to 103 °C.
For CCN(CC)C(=O)c1ccc(C(=C2CCN(C3CCCCC3)CC2)c2ccccc2)cc1 (as salt: HCl), the melting point was 105 to 109 °C.
In the case of CCN(CC)C(=O)c1ccc(C(=C2CCN(Cc3ccc(OC)cc3)CC2)c2ccccc2)cc1 (as salt: HCl), the melting point is reported as 100 to 110 °C.
With CCN(CC)C(=O)c1ccc(C(=C2CCN(Cc3ccc(Cl)cc3Cl)CC2)c2ccccc2)cc1 (as salt: HCl) the melting point was 95 to 110 °C.
In the case of CCN(CC)C(=O)c1ccc(C(=C2CCNCC2)c2cccc3cccnc23)cc1 (as salt: HCl), the melting point is reported as > 170 °C (dec.).
For CCN(CC)C(=O)c1ccc(C(=C2CCNCC2)c2cccc(OC)c2)cc1 (as salt: HCl), the melting point was > 90 °C (dec.).
For CCN(CC)C(=O)c1ccc(C(=C2CCN(Cc3ccccc3)CC2)c2cccc(OC)c2)cc1 (as salt: HCl), the melting point was 100 to 110 °C.
Compound CCN(CC)C(=O)c1ccc(C(=C2CCN(Cc3ccccc3)CC2)c2ccccc2)cc1 (as salt: HCl) has a melting point of 230 to 245 °C.
For CCN(CC)C(=O)c1ccc(C(=C2CCN(Cc3ccccc3)CC2)c2ccc(Cl)cc2)cc1 (as salt: salt), the melting point was 100 to 110 °C.
In the case of Oc1ccc2c3c1O[C@H]1c4[nH]c5ccccc5c4C[C@@]4(O)[C@@H](C2)N(CC2CC2)CC[C@]314 [naltrindole], the “selectivity for the δ receptor vs. μ receptor binding” value [1] is given as < 10 fold and the analgesic activity [2] is given as “no analgesic activity”.
